Source: ChEMBL document CHEMBL1201862, “PubChem BioAssay data set” (2004)
Calls of active or inactive are those of the source. Rule as the data show it: actives have a measured IC50 and inactives only a lower limit.

Molecular target: Envelope glycoprotein gp160 (Human immunodeficiency virus 1, UniProt Q6QLK5)
Experiment: cell-free HIV fusion peptide-binding blockers – biochemical, uHTS, fluorescence dequenching, […] (AID 1986)

Envelope glycoprotein gp160, sequence (Q6QLK5 whole entry, the tested form may be a part): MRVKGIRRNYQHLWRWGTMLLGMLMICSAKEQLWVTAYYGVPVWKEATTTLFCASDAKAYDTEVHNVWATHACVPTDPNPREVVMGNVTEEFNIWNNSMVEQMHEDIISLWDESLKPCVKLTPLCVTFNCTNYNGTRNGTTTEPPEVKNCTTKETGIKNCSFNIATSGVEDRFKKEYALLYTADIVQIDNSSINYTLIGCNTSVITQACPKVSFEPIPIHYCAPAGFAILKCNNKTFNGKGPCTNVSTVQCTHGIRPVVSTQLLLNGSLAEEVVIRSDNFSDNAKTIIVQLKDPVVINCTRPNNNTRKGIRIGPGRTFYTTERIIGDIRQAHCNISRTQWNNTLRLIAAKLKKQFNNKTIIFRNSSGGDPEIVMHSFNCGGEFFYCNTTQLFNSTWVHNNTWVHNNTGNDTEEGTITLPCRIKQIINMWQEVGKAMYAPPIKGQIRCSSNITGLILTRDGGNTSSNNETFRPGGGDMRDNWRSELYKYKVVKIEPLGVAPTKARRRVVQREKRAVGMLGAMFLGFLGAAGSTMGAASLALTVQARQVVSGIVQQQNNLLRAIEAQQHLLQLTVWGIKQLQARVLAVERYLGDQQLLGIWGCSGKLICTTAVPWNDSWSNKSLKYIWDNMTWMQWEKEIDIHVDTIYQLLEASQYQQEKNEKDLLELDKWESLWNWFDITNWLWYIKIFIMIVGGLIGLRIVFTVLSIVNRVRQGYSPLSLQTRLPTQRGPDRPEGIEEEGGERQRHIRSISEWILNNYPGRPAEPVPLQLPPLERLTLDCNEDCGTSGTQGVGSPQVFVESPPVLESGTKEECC

Row | Structure (SMILES) | IC50
1 | CSc1nc(SCC(=O)O)c2sc3nc(-c4ccccc4)c4c(c3c2n1)CCC4 | 16.2 µM (active)
2 | O=C1NN(c2ccc(F)c(Cl)c2)C(=O)/C1=C\c1cccc(OC(=O)c2cccs2)c1 | 7.72 µM (active)
3 | O=C(O)Cn1cc(/C=c2/sc3nc4ccccc4n3c2=O)c2ccccc21 | 68.9 µM (active)
